For the test, the system named is S. aureus DPC5246. The class given is cell-based, Staphylococcus aureus. The conditions noted are these: for Activity (Minimum Inhibitory Concentration, MIC): DPC5246, pH 6.8; for fold reduction in activity compared with bactofencin A (wild type): S. aureus DPC5246, agar well diffusion MIC. On the procedure: Peptides were resuspended at 1000 µM in 50 mM sodium phosphate buffer pH 6.8 and checked for purity by MALDI-TOF-MS. Peptides were serially diluted 1 in 4 to give a dilution series of 250, 62.50, 15.63, 3.91, 0.98 and 0.24 µM and assayed by the agar well diffusion assay described by Ryan et al.[19]. Briefly, 50 µl aliquots of each peptide concentration were plated on a S. aureus DPC5246 indicator plate and the plate incubated at 37 °C. Peptide activity (Minimum Inhibitory Concentration (MIC)) was taken as the lowest concentration of peptide to give a zone of inhibition. All assays were performed in triplicate. The dilution series values were rounded to the nearest whole number to give 1000, 250, 63, 16, 4, 1 and 0.25 µM and data is colour coded for ease of interpretation.
(Agar diffusion results depend on both activity and mobility in agar.)

Bridge positions count the residues as written; N and C are the ends. Square brackets hold non-standard residues; d marks the D form. Peptide text beside a SMILES is read from it.

Regarding `CSCC[C@@H]1NC(=O)CNC(=O)[C@H]([C@@H](C)O)NC(=O)[C@@H]2CCCN2C(=O)[C@H](CCSC)NC(=O)CNC(=O)[C@H](CC(N)=O)NC(=O)[C@H](CC(N)=O)NC(=O)[C@H](Cc2ccc(O)cc2)NC(=O)[C@H](C(C)C)NC(=O)[C@H](CCCNC(=N)N)NC(=O)[C@@H](NC(=O)[C@H](C)NC(=O)[C@H](Cc2c[nH]cn2)NC(=O)[C@H](CCCCN)NC(=O)[C@H](CCCCN)NC(=O)[C@H](CCCNC(=N)N)NC(=O)[C@@H](N)CCCCN)CSSC[C@@H](C(=O)O)NC(=O)[C@H](Cc2c[nH]c3ccccc23)NC(=O)[C@H](CCCNC(=N)N)NC(=O)[C@H](Cc2ccc(O)cc2)NC1=O` [R6A] (H-KRKKHACRVYNNGMPTGMYRWC-OH; disulfide 7-22), the “Activity (Minimum Inhibitory Concentration, MIC)” value was determined as 1 µM.

With `CSCC[C@@H]1NC(=O)CNC(=O)[C@H]([C@@H](C)O)NC(=O)[C@@H]2CCCN2C(=O)[C@H](CCSC)NC(=O)CNC(=O)[C@H](CC(N)=O)NC(=O)[C@H](CC(N)=O)NC(=O)[C@H](Cc2ccc(O)cc2)NC(=O)[C@H](C(C)C)NC(=O)[C@H](C)NC(=O)[C@@H](NC(=O)[C@H](CCCNC(=N)N)NC(=O)[C@H](Cc2c[nH]cn2)NC(=O)[C@H](CCCCN)NC(=O)[C@H](CCCCN)NC(=O)[C@H](CCCNC(=N)N)NC(=O)[C@@H](N)CCCCN)CSSC[C@@H](C(=O)O)NC(=O)[C@H](Cc2c[nH]c3ccccc23)NC(=O)[C@H](CCCNC(=N)N)NC(=O)[C@H](Cc2ccc(O)cc2)NC1=O` [R8A] (H-KRKKHRCAVYNNGMPTGMYRWC-OH; disulfide 7-22), the “Activity (Minimum Inhibitory Concentration, MIC)” value is 1 µM.

Turning to `CSCC[C@@H]1NC(=O)CNC(=O)[C@H]([C@@H](C)O)NC(=O)[C@@H]2CCCN2C(=O)[C@H](CCSC)NC(=O)CNC(=O)[C@H](CC(N)=O)NC(=O)[C@H](CC(N)=O)NC(=O)[C@H](Cc2ccc(O)cc2)NC(=O)[C@H](C(C)C)NC(=O)[C@@H](CCCNC(=N)N)NC(=O)[C@@H](NC(=O)[C@H](CCCNC(=N)N)NC(=O)[C@H](Cc2c[nH]cn2)NC(=O)[C@H](CCCCN)NC(=O)[C@H](CCCCN)NC(=O)[C@H](CCCNC(=N)N)NC(=O)[C@@H](N)CCCCN)CSSC[C@@H](C(=O)O)NC(=O)[C@H](Cc2c[nH]c3ccccc23)NC(=O)[C@H](CCCNC(=N)N)NC(=O)[C@H](Cc2ccc(O)cc2)NC1=O` [R8Rd] (H-KRKKHRC[dR]VYNNGMPTGMYRWC-OH; disulfide 7-22; N-terminus assumed), the “Activity (Minimum Inhibitory Concentration, MIC)” value came out at 63 µM and the “fold reduction in activity compared with bactofencin A (wild type)” value is 63 fold.

Take `CSCC[C@@H]1NC(=O)CNC(=O)[C@H]([C@@H](C)O)NC(=O)[C@@H]2CCCN2C(=O)[C@H](CCSC)NC(=O)CNC(=O)[C@H](CC(N)=O)NC(=O)[C@H](CC(N)=O)NC(=O)[C@H](Cc2ccc(O)cc2)NC(=O)[C@H](C(C)C)NC(=O)[C@H](CCCNC(=N)N)NC(=O)[C@@H](NC(=O)[C@H](CCCNC(=N)N)NC(=O)[C@H](Cc2c[nH]cn2)NC(=O)[C@H](CCCCN)NC(=O)[C@H](CCCCN)NC(=O)[C@H](CCCNC(=N)N)NC(=O)[C@@H](N)CCCCN)CSSC[C@@H](C(=O)O)NC(=O)[C@H](Cc2c[nH]c3ccccc23)NC(=O)[C@H](C)NC(=O)[C@H](Cc2ccc(O)cc2)NC1=O` [R20A] (H-KRKKHRCRVYNNGMPTGMYAWC-OH; disulfide 7-22): the “Activity (Minimum Inhibitory Concentration, MIC)” value is 1 µM.

With `CSCC[C@@H]1NC(=O)CNC(=O)[C@H]([C@@H](C)O)NC(=O)[C@@H]2CCCN2C(=O)[C@H](CCSC)NC(=O)CNC(=O)[C@H](CC(N)=O)NC(=O)[C@H](CC(N)=O)NC(=O)[C@H](Cc2ccc(O)cc2)NC(=O)[C@H](C(C)C)NC(=O)[C@H](CCCNC(=N)N)NC(=O)[C@@H](NC(=O)[C@H](CCCNC(=N)N)NC(=O)[C@H](Cc2c[nH]cn2)NC(=O)[C@H](CCCCN)NC(=O)[C@H](CCCCN)NC(=O)[C@H](CCCNC(=N)N)NC(=O)[C@@H](N)CCCCN)CSSC[C@@H](C(=O)O)NC(=O)[C@H](Cc2c[nH]c3ccccc23)NC(=O)[C@@H](CCCNC(=N)N)NC(=O)[C@H](Cc2ccc(O)cc2)NC1=O` [R20Rd] (H-KRKKHRCRVYNNGMPTGMY[dR]WC-OH; disulfide 7-22; N-terminus assumed), the “Activity (Minimum Inhibitory Concentration, MIC)” value is on record as 4 µM.

Consider `CSCC[C@@H]1NC(=O)CNC(=O)[C@H](C)NC(=O)[C@@H]2CCCN2C(=O)[C@H](CCSC)NC(=O)CNC(=O)[C@H](CC(N)=O)NC(=O)[C@H](CC(N)=O)NC(=O)[C@H](Cc2ccc(O)cc2)NC(=O)[C@H](C(C)C)NC(=O)[C@H](CCCNC(=N)N)NC(=O)[C@@H](NC(=O)[C@H](CCCNC(=N)N)NC(=O)[C@H](Cc2c[nH]cn2)NC(=O)[C@H](CCCCN)NC(=O)[C@H](CCCCN)NC(=O)[C@H](CCCNC(=N)N)NC(=O)[C@@H](N)CCCCN)CSSC[C@@H](C(=O)O)NC(=O)[C@H](Cc2c[nH]c3ccccc23)NC(=O)[C@H](CCCNC(=N)N)NC(=O)[C@H](Cc2ccc(O)cc2)NC1=O` [T16A] (H-KRKKHRCRVYNNGMPAGMYRWC-OH; disulfide 7-22), for which the “Activity (Minimum Inhibitory Concentration, MIC)” value was determined as 16 µM.

On to `CSCC[C@@H]1NC(=O)CNC(=O)[C@H]([C@@H](C)O)NC(=O)[C@@H]2CCCN2C(=O)[C@H](CCSC)NC(=O)CNC(=O)[C@H](CC(N)=O)NC(=O)[C@H](CC(N)=O)NC(=O)[C@H](Cc2ccc(O)cc2)NC(=O)[C@H](C)NC(=O)[C@H](CCCNC(=N)N)NC(=O)[C@@H](NC(=O)[C@H](CCCNC(=N)N)NC(=O)[C@H](Cc2c[nH]cn2)NC(=O)[C@H](CCCCN)NC(=O)[C@H](CCCCN)NC(=O)[C@H](CCCNC(=N)N)NC(=O)[C@@H](N)CCCCN)CSSC[C@@H](C(=O)O)NC(=O)[C@H](Cc2c[nH]c3ccccc23)NC(=O)[C@H](CCCNC(=N)N)NC(=O)[C@H](Cc2ccc(O)cc2)NC1=O` [V9A] (H-KRKKHRCRAYNNGMPTGMYRWC-OH; disulfide 7-22), for which the “Activity (Minimum Inhibitory Concentration, MIC)” value stood at 4 µM.

For `CSCC[C@@H]1NC(=O)CNC(=O)[C@H]([C@@H](C)O)NC(=O)[C@@H]2CCCN2C(=O)[C@H](CCSC)NC(=O)CNC(=O)[C@H](CC(N)=O)NC(=O)[C@H](CC(N)=O)NC(=O)[C@H](Cc2ccc(O)cc2)NC(=O)[C@@H](C(C)C)NC(=O)[C@H](CCCNC(=N)N)NC(=O)[C@@H](NC(=O)[C@H](CCCNC(=N)N)NC(=O)[C@H](Cc2c[nH]cn2)NC(=O)[C@H](CCCCN)NC(=O)[C@H](CCCCN)NC(=O)[C@H](CCCNC(=N)N)NC(=O)[C@@H](N)CCCCN)CSSC[C@@H](C(=O)O)NC(=O)[C@H](Cc2c[nH]c3ccccc23)NC(=O)[C@H](CCCNC(=N)N)NC(=O)[C@H](Cc2ccc(O)cc2)NC1=O` [V9Vd] (H-KRKKHRCR[dV]YNNGMPTGMYRWC-OH; disulfide 7-22; N-terminus assumed), the “Activity (Minimum Inhibitory Concentration, MIC)” value came out at 63 µM and the “fold reduction in activity compared with bactofencin A (wild type)” value came to 63 fold.

As for `CSCC[C@@H]1NC(=O)CNC(=O)[C@H]([C@@H](C)O)NC(=O)[C@@H]2CCCN2C(=O)[C@H](CCSC)NC(=O)CNC(=O)[C@H](CC(N)=O)NC(=O)[C@H](CC(N)=O)NC(=O)[C@H](Cc2ccc(O)cc2)NC(=O)[C@H](C(C)C)NC(=O)[C@H](CCCNC(=N)N)NC(=O)[C@@H](NC(=O)[C@H](CCCNC(=N)N)NC(=O)[C@H](Cc2c[nH]cn2)NC(=O)[C@H](CCCCN)NC(=O)[C@H](CCCCN)NC(=O)[C@H](CCCNC(=N)N)NC(=O)[C@@H](N)CCCCN)CSSC[C@@H](C(=O)O)NC(=O)[C@H](C)NC(=O)[C@H](CCCNC(=N)N)NC(=O)[C@H](Cc2ccc(O)cc2)NC1=O` [W21A] (H-KRKKHRCRVYNNGMPTGMYRAC-OH; disulfide 7-22), the “Activity (Minimum Inhibitory Concentration, MIC)” value worked out at 1 µM.

Consider `CSCC[C@@H]1NC(=O)CNC(=O)[C@H]([C@@H](C)O)NC(=O)[C@@H]2CCCN2C(=O)[C@H](CCSC)NC(=O)CNC(=O)[C@H](CC(N)=O)NC(=O)[C@H](CC(N)=O)NC(=O)[C@H](Cc2ccc(O)cc2)NC(=O)[C@H](C(C)C)NC(=O)[C@H](CCCNC(=N)N)NC(=O)[C@@H](NC(=O)[C@H](CCCNC(=N)N)NC(=O)[C@H](Cc2c[nH]cn2)NC(=O)[C@H](CCCCN)NC(=O)[C@H](CCCCN)NC(=O)[C@H](CCCNC(=N)N)NC(=O)[C@@H](N)CCCCN)CSSC[C@@H](C(=O)O)NC(=O)[C@@H](Cc2c[nH]c3ccccc23)NC(=O)[C@H](CCCNC(=N)N)NC(=O)[C@H](Cc2ccc(O)cc2)NC1=O` [W21Wd] (H-KRKKHRCRVYNNGMPTGMYR[dW]C-OH; disulfide 7-22; N-terminus assumed), for which the “Activity (Minimum Inhibitory Concentration, MIC)” value stood at 4 µM.

With `CSCC[C@@H]1NC(=O)CNC(=O)[C@H]([C@@H](C)O)NC(=O)[C@@H]2CCCN2C(=O)[C@H](CCSC)NC(=O)CNC(=O)[C@H](CC(N)=O)NC(=O)[C@H](CC(N)=O)NC(=O)[C@H](C)NC(=O)[C@H](C(C)C)NC(=O)[C@H](CCCNC(=N)N)NC(=O)[C@@H](NC(=O)[C@H](CCCNC(=N)N)NC(=O)[C@H](Cc2c[nH]cn2)NC(=O)[C@H](CCCCN)NC(=O)[C@H](CCCCN)NC(=O)[C@H](CCCNC(=N)N)NC(=O)[C@@H](N)CCCCN)CSSC[C@@H](C(=O)O)NC(=O)[C@H](Cc2c[nH]c3ccccc23)NC(=O)[C@H](CCCNC(=N)N)NC(=O)[C@H](Cc2ccc(O)cc2)NC1=O` [Y10A] (H-KRKKHRCRVANNGMPTGMYRWC-OH; disulfide 7-22), the “Activity (Minimum Inhibitory Concentration, MIC)” value is listed as 4 µM.

Regarding `CSCC[C@@H]1NC(=O)CNC(=O)[C@H]([C@@H](C)O)NC(=O)[C@@H]2CCCN2C(=O)[C@H](CCSC)NC(=O)CNC(=O)[C@H](CC(N)=O)NC(=O)[C@H](CC(N)=O)NC(=O)[C@@H](Cc2ccc(O)cc2)NC(=O)[C@H](C(C)C)NC(=O)[C@H](CCCNC(=N)N)NC(=O)[C@@H](NC(=O)[C@H](CCCNC(=N)N)NC(=O)[C@H](Cc2c[nH]cn2)NC(=O)[C@H](CCCCN)NC(=O)[C@H](CCCCN)NC(=O)[C@H](CCCNC(=N)N)NC(=O)[C@@H](N)CCCCN)CSSC[C@@H](C(=O)O)NC(=O)[C@H](Cc2c[nH]c3ccccc23)NC(=O)[C@H](CCCNC(=N)N)NC(=O)[C@H](Cc2ccc(O)cc2)NC1=O` [Y10Yd] (H-KRKKHRCRV[dY]NNGMPTGMYRWC-OH; disulfide 7-22; N-terminus assumed), the “Activity (Minimum Inhibitory Concentration, MIC)” value is listed as > 1000 µM.

Values taken from article PMC6081437, “The potency of the broad spectrum bacteriocin, bactofencin A, against staphylococci is highly dependent on primary structure, N-terminal charge and disulphide formation” (Scientific Reports, 2018).
